The values below come from patent US20240101548A1, “HYDROXAMATE COMPOUND, PREPARATION METHOD THEREFOR AND APPLICATION THEREOF” (SHENZHEN CHIPSCREEN BIOSCIENCES CO., LTD., priority 2020, published 2024).

Assay type in all cases: cell-based, human
The subject of experiment [1] is IL-10-induced JAK1/TYK2 signal pathway. The experiment is described as follows: IL-10-induced JAK1/TYK2 signal pathway STAT3-Luc reporter gene assay in U2OS cells. The settings on record: U2OS cells, STAT3-Luc reporter, IL-10 10 ng/mL, read-out: Half inhibition dose (IC50) on IL-10-induced JAK1/TYK2 signal pathway. The method in brief:
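Luciferase read-out (560 nm) corrected by GFP signal (Ex485/Em520) gives IL-10 pathway activity, and IC50 is derived from inhibition rates. Cells were U2OS transfected with IL-10R1 plus STAT3-Luc reporter, pretreated 6 h with 0.1–300 nM compound, then stimulated 24 h with IL-10 at 10 ng/mL.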
(A reporter such as luciferase makes a cellular process visible.)

The test system of experiment [2] is EPO-induced JAK2 signal pathway. The experiment is described as follows: EPO-induced proliferation of UT-7 cells (JAK2 signal). The settings on record: UT-7 cell proliferation, EPO 10 ng/mL, 72 hours, read-out: Inhibition activity IC50 on EPO-induced JAK2 signal pathway. Put shortly: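 […] was derived from inhibition rates across doses, scaled between wells lacking compound and cytokine (0) and EPO without compound (100), using alamarBlue fluorescence at Ex530/Em590. Compound (final 0-10000 nM) and 10 ng/mL EPO were given to UT-7 cells at 15000 per well for 72 h at 37° C.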

In experiment [3] the test system is IL-2-induced JAK1/JAK3 signal pathway. The experiment is described as follows: IL-2-induced proliferation of KHYG-1 cells (JAK1/JAK3 signal). The settings on record: KHYG-1 cell proliferation, IL-2 10 ng/mL, 72 hours, read-out: Inhibition activity IC50 on IL-2-induced JAK1/JAK3 signal pathway. Put shortly:
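Controls were wells lacking both compound and cytokine (0%) and compound-free IL-2 wells (100%). C50 was calculated from inhibition rates across doses.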

Each structure is given as a SMILES string. Like-named read-outs stand apart in the source and are kept apart here.

For `CCONC(=O)c1cnc(Nc2cccc(C)n2)cc1Nc1ccc(C2CC2)cc1N(C)S(C)(=O)=O` [Example 224, 4-((4-cyclopropyl-2-(N-methylmethanesulfonamido)phenyl)amino)-N-ethoxy-6-((6-methylpyridin-2-yl)amino)nicotinamide], the IC50 in experiment [1] is 0.000177 µM; in experiment [2], more than 10 µM; in experiment [3], more than 10 µM.
For `CCONC(=O)c1cnc(NC(=O)C2CC2)cc1Nc1cc(F)cc(-c2ncc(C)cn2)c1OC` [Example 226, 6-(cyclopropylcarboxamido)-N-ethoxy-4-((5-fluoro-2-(methoxy)-3-(5-methylpyrimidin-2-yl)phenyl)amino)nicotinamide], the IC50 in experiment [1] (Homo sapiens, U2OS) was 0.000538 µM; in experiment [2] (Homo sapiens, UT7) it was more than 10 µM; in experiment [3] (Homo sapiens) it was more than 10 µM.
In the case of `CCONC(=O)c1cnc(Nc2ccncn2)cc1Nc1cc(F)c(C(C)C)cc1N(C)S(C)(=O)=O` [Example 230, N-ethoxy-4-((5-fluoro-4-isopropyl-2-(N-methylmethanesulfonamido)phenyl)amino)-6-(pyrimidin-4-ylamino)nicotinamide], the IC50 in experiment [1] (Homo sapiens, U2OS) was 0.00085 µM; in experiment [2] (Homo sapiens, UT7) it was more than 10 µM; in experiment [3] (Homo sapiens), more than 10 µM.
In the case of `CCONC(=O)c1cnc(Nc2ncc(F)cc2F)cc1Nc1cc(F)cc(-c2ncc(F)cn2)c1OC` [Example 234, 6-((3,5-difluoropyridin-2-yl)amino)-N-ethoxy-4-((5-fluoro-3-(5-fluoropyrimidin-2-yl)-2-methoxyphenyl)amino)nicotinamide], the IC50 was 0.000368 µM in experiment [1] (Homo sapiens, U2OS); more than 10 µM in experiment [2] (Homo sapiens, UT7); more than 10 µM in experiment [3] (Homo sapiens).
Consider `CCONC(=O)c1cnc(Nc2cnc(F)c(C)c2)cc1Nc1ccc(C2CC2)cc1N(C)S(C)(=O)=O` [Example 235, 4-((4-cyclopropyl-2-(N-methylmethanesulfonamido)phenyl)amino)-N-ethoxy-6-((6-fluoro-5-methylpyridin-3-yl)amino)nicotinamide], for which the IC50 was 0.000722 µM in experiment [1] (Homo sapiens, U2OS); more than 10 µM in experiment [2] (Homo sapiens, UT7); more than 10 µM in experiment [3] (Homo sapiens).
Take `CCONC(=O)c1cnc(Nc2cncc(F)c2)cc1Nc1ccc(C2CC2)cc1N(C)S(C)(=O)=O` [Example 236, 4-((4-cyclopropyl-2-(N-methylmethanesulfonamido)phenyl)amino)-N-ethoxy-6-((5-fluoropyridin-3-yl)amino)nicotinamide]: the IC50 in experiment [1] (Homo sapiens, U2OS) is 0.000587 µM; in experiment [2] (Homo sapiens, UT7) it was more than 10 µM; in experiment [3] (Homo sapiens) it was more than 10 µM.
For `CCONC(=O)c1cnc(Nc2ccc(F)nc2)cc1Nc1ccc(C2CC2)cc1N(C)S(C)(=O)=O` [Example 237, 4-((4-cyclopropyl-2-(N-methylmethanesulfonamido)phenyl)amino)-N-ethoxy-6-((6-fluoropyridin-3-yl)amino)nicotinamide], the IC50 is 0.000395 µM in experiment [1] (Homo sapiens, U2OS); more than 10 µM in experiment [2] (Homo sapiens, UT7); more than 10 µM in experiment [3] (Homo sapiens).
Regarding `CCONC(=O)c1cnc(NC(=O)C2CC2)cc1Nc1cccc(-c2ncc(C)cn2)c1OC` [Example 239, 6-(cyclopropylcarboxamido)-N-ethoxy-4-((2-methoxy-3-(5-methylpyrimidin-2-yl)phenyl)amino)nicotinamide], the IC50 is 0.000289 µM in experiment [1] (Homo sapiens, U2OS); more than 10 µM in experiment [2] (Homo sapiens, UT7); more than 10 µM in experiment [3] (Homo sapiens).
Take `CCONC(=O)c1cnc(Nc2ccnc(C)n2)cc1Nc1cccc(-c2ncc(C)cn2)c1OC` [Example 240, N-ethoxy-4-((2-methoxy-3-(5-methylpyrimidin-2-yl)phenyl)amino)-6-((2-methylpyrimidin-4-yl)amino)nicotinamide]: the IC50 in experiment [1] (Homo sapiens, U2OS) is 0.000258 µM; in experiment [2] (Homo sapiens, UT7) it was more than 10 µM; in experiment [3] (Homo sapiens), more than 10 µM.
Take `CCONC(=O)c1cnc(Nc2ncc(F)cc2F)cc1Nc1cccc(-c2ncccn2)c1OC` [Example 242, 6-((3,5-difluoropyridin-2-yl)amino)-N-ethoxy-4-((2-methoxy-3-(pyrimidin-2-yl)phenyl)amino)nicotinamide]: the IC50 in experiment [1] (Homo sapiens) was 0.00212 µM; in experiment [2] (Homo sapiens, UT7), more than 10 µM; in experiment [3] (Homo sapiens), more than 10 µM.
